What was measured:
MCF7 [1] = assay: Cytotoxicity against human MCF7 cells assessed as survival rate at 10 uM measured after 72 hrs by MTT assay relative to control; type: functional; details: read-out: Survival
HCT-116 [2] = assay: Cytotoxicity against human HCT-116 cells assessed as survival rate at 10 uM measured after 72 hrs by MTT assay relative to control; type: functional; details: read-out: Survival
U-87 MG [3] = assay: Cytotoxicity against human U-87 MG cells assessed as survival rate at 10 uM measured after 72 hrs by MTT assay relative to control; type: functional, U-87MG ATCC; details: read-out: Survival
MGC-803 [4] = assay: Cytotoxicity against human MGC-803 cells assessed as inhibition of cell growth incubated for 72 hrs by MTT assay; type: functional, cell-based; details: MGC-803, 72 h
HCT-116 [5] = assay: Cytotoxicity against human HCT-116 cells assessed as inhibition of cell growth incubated for 72 hrs by MTT assay; type: functional, cell-based; details: HCT-116, 72 h
HeLa [6] = assay: Cytotoxicity against human HeLa cells assessed as inhibition of cell growth at 10 uM measured after 72 hrs by MTT assay relative to control; type: functional
U-87 MG [7] = assay: Cytotoxicity against human U-87 MG cells assessed as inhibition of cell growth incubated for 72 hrs by MTT assay; type: functional, cell-based, U-87MG ATCC
HCT-116 [8] = assay: Cytotoxicity against human HCT-116 cells assessed as inhibition of cell growth at 10 uM measured after 72 hrs by MTT assay relative to control; type: functional
MCF7 [9] = assay: Cytotoxicity against human MCF7 cells assessed as inhibition of cell growth incubated for 72 hrs by MTT assay; type: functional, cell-based; details: MCF7, 72 h
MKN-45 [10] = assay: Cytotoxicity against human MKN-45 cells assessed as inhibition of cell growth at 10 uM measured after 72 hrs by MTT assay relative to control; type: functional
U-87 MG [11] = assay: Cytotoxicity against human U-87 MG cells assessed as inhibition of cell growth at 10 uM measured after 72 hrs by MTT assay relative to control; type: functional, U-87MG ATCC
MKN-45 [12] = assay: Cytotoxicity against human MKN-45 cells assessed as inhibition of cell growth incubated for 72 hrs by MTT assay; type: functional, cell-based; details: MKN-45, 72 h
MGC-803 [13] = assay: Cytotoxicity against human MGC-803 cells assessed as inhibition of cell growth at 10 uM measured after 72 hrs by MTT assay relative to control; type: functional
[14] = Cytotoxicity against HHL-5 cells assessed as inhibition of cell growth incubated for 72 hrs by MTT assay; type: toxicity, cell-based; details: human
MCF7 [15] = assay: Cytotoxicity against human MCF7 cells assessed as inhibition of cell growth at 10 uM measured after 72 hrs by MTT assay relative to control; type: functional
HeLa [16] = assay: Cytotoxicity against human HeLa cells assessed as inhibition of cell growth incubated for 72 hrs by MTT assay; type: functional, cell-based
HT-29 = assay: Antitumor activity against human HT-29 cells; type: functional, cell-based
A549 = assay: Antitumor activity against human A549 cells; type: functional, cell-based
P388 = assay: Antitumor activity against mouse P388 cells; type: functional, cell-based

Row | Structure (SMILES) | viability at 10 µM (MCF7 [1]) | viability at 10 µM (HCT-116 [2]) | viability at 10 µM (U-87 MG [3]) | IC50 (MGC-803 [4]) | IC50 (HCT-116 [5]) | inhibition at 10 µM (HeLa [6]) | IC50 (U-87 MG [7]) | inhibition at 10 µM (HCT-116 [8]) | IC50 (MCF7 [9]) | inhibition at 10 µM (MKN-45 [10]) | inhibition at 10 µM (U-87 MG [11]) | IC50 (MKN-45 [12]) | inhibition at 10 µM (MGC-803 [13]) | IC50 at 72 h [14] | inhibition at 10 µM (MCF7 [15]) | IC50 (HeLa [16]) | IC50 (HT-29) | IC50 (A549) | IC50 (P388)
1 | CC(=O)Nc1ccc(/C=C2\OC(=O)C=C2c2ccccc2)cc1 | 92.2% | 87.2% | 90.3% | – | – | – | – | – | – | – | – | – | – | – | – | – | – | – | –
2 | COc1ccc(C2=CC(=O)O/C2=C\c2ccc(N(C)C)cc2)cc1 | 92.2% | 87.2% | 101% | – | – | – | – | – | – | – | – | – | – | – | – | – | – | – | –
3 | COc1ccc(C2=CC(=O)O/C2=C\c2ccc(C(C)C)cc2)cc1 | 102% | 85.9% | 97.4% | – | – | – | – | – | – | – | – | – | – | – | – | – | – | – | –
4 | COc1ccc(C2=CC(=O)O/C2=C\c2ccc(O)c(O)c2)cc1 | 26.1% | 31.7% | 51.9% | 8.8 µM | 3.4 µM | > 50% | 23.8 µM | > 50% | 2.5 µM | > 50% | > 50% | 2.8 µM | > 50% | 11.3 µM | > 50% | 1.3 µM | – | – | –
5 | COc1ccc(/C=C2\OC(=O)C=C2c2ccccc2)cc1 | 82.9% | 113% | 91.2% | – | – | – | – | – | – | – | – | – | – | – | – | – | – | – | –
6 | COc1ccc(/C=C2\OC(=O)C=C2c2ccc(OC)cc2)cc1 | 25.9% | 26.5% | 39.1% | 6.2 µM | 3.7 µM | > 50% | 11.9 µM | > 50% | 4.3 µM | > 50% | > 50% | 5.2 µM | > 50% | 3.9 µM | > 50% | 2.2 µM | – | – | –
7 | COc1ccc(C2=CC(=O)O/C2=C\c2ccc(Br)cc2)cc1 | 107% | 107% | 103% | – | – | – | – | – | – | – | – | – | – | – | – | – | – | – | –
8 | O=C1O/C(=C\c2ccc(O)c(Br)c2)C(c2ccc(O)c(Br)c2)=C1Cl | – | – | – | – | – | – | – | – | – | – | – | – | – | – | – | – | 2.6 µM | – | –
9 | COc1ccc(C2=CC(=O)O/C2=C\c2ccc3[nH]ccc3c2)cc1 | 25.8% | 23.9% | 39.5% | 0.9 µM | 0.3 µM | > 50% | 7.8 µM | > 50% | 1.3 µM | > 50% | > 50% | 0.2 µM | > 50% | 1.3 µM | > 50% | 0.2 µM | – | – | –
10 | COc1ccc(C2=CC(=O)O/C2=C\c2ccc(C)cc2)cc1 | 101% | 87.3% | 94.1% | – | – | – | – | – | – | – | – | – | – | – | – | – | – | – | –
11 | O=C1O/C(=C\c2cc(Br)c(O)c(Br)c2)C(c2cc(Br)c(O)c(Br)c2)=C1Cl | – | – | – | – | – | – | – | – | – | – | – | – | – | – | – | – | 8 µM | 8 µM | 8 µM
12 | O=C1C=C(c2ccccc2)/C(=C/c2ccc3[nH]ccc3c2)O1 | 60.2% | 98.9% | 103% | – | – | – | – | – | – | – | – | – | – | – | – | – | – | – | –
13 | COc1ccc(C2=CC(=O)O/C2=C\c2ccccc2)cc1 | 29.7% | 32.5% | 52% | 5 µM | 1.9 µM | > 50% | 13.7 µM | > 50% | 1.2 µM | > 50% | > 50% | 1 µM | > 50% | 1.6 µM | > 50% | 1.8 µM | – | – | –

From ChEMBL document CHEMBL6078667, “Synthesis, Biological Evaluation, and Mechanistic Insights of Rubrolide Analogues as Antitumor Agents” (J Nat Prod, 2024)
